Results reported in PubChem BioAssay (NCI).
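Assay format: 96-well plates, 48-hour exposure. At the TGI there is no net growth.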

Assays:
Assay in all cases: NCI anticancer screen, dose series, 48 h
ACHN renal = tested on: ACHN renal
OVCAR-5 ovarian = tested on: OVCAR-5 ovarian
M14 melanoma = tested on: M14 melanoma
NCI-H226 lung = tested on: NCI-H226 lung
NCI-H23 lung = tested on: NCI-H23 lung
786-0 renal = tested on: 786-0 renal
SF-295 CNS = tested on: SF-295 CNS
SF-539 CNS = tested on: SF-539 CNS
RPMI-8226 leukemia = tested on: RPMI-8226 leukemia
BT-549 breast = tested on: BT-549 breast
UO-31 renal = tested on: UO-31 renal
U251 CNS = tested on: U251 CNS
MALME-3M melanoma = tested on: MALME-3M melanoma
SK-MEL-28 melanoma = tested on: SK-MEL-28 melanoma

CC(NC(=O)c1ccccc1)NC(=O)C(C)C(=O)Nc1ccccc1 (centres undefined) was tested, and the TGI (ACHN renal) was greater than 100 µM, the TGI (OVCAR-5 ovarian) was greater than 100 µM and the TGI (M14 melanoma) was greater than 100 µM. The TGI (NCI-H226 lung) was greater than 100 µM, the TGI (NCI-H23 lung) was greater than 100 µM and the TGI (786-0 renal) was greater than 100 µM. For the same compound, the TGI (SF-295 CNS) was greater than 100 µM, the TGI (SF-539 CNS) was greater than 100 µM and the TGI (RPMI-8226 leukemia) was greater than 100 µM. The TGI (BT-549 breast) was greater than 100 µM, the TGI (UO-31 renal) was greater than 100 µM and the TGI (U251 CNS) was greater than 100 µM. It also gave a TGI (MALME-3M melanoma) greater than 100 µM.
Compound CCCCC(Sc1cc(Cl)c(C)cc1S(=O)(=O)Nc1n[nH]c(N)n1)C(=O)OC (centres undefined) has a TGI (ACHN renal) greater than 10 µM, a TGI (OVCAR-5 ovarian) greater than 10 µM and a TGI (M14 melanoma) greater than 10 µM. For the same compound, the TGI (SK-MEL-28 melanoma) was greater than 10 µM, the TGI (NCI-H226 lung) was greater than 10 µM and the TGI (NCI-H23 lung) was greater than 10 µM. It also gave a TGI (786-0 renal) greater than 10 µM, a TGI (SF-295 CNS) greater than 10 µM and a TGI (SF-539 CNS) greater than 10 µM. It also gave a TGI (RPMI-8226 leukemia) greater than 10 µM, a TGI (BT-549 breast) greater than 10 µM and a TGI (U251 CNS) greater than 10 µM. The TGI (MALME-3M melanoma) was greater than 10 µM.
For C=C(C)[C@@]1(OC(=O)c2cc([N+](=O)[O-])cc([N+](=O)[O-])c2)C[C@@H]2CCCC[C@@H]21, the TGI (ACHN renal) was greater than 100 µM, the TGI (OVCAR-5 ovarian) was greater than 100 µM and the TGI (M14 melanoma) was greater than 100 µM. It also gave a TGI (SK-MEL-28 melanoma) greater than 100 µM, a TGI (NCI-H226 lung) greater than 100 µM and a TGI (NCI-H23 lung) greater than 100 µM. It also gave a TGI (786-0 renal) greater than 100 µM, a TGI (SF-295 CNS) greater than 100 µM and a TGI (SF-539 CNS) greater than 100 µM. The TGI (RPMI-8226 leukemia) was greater than 100 µM, the TGI (BT-549 breast) was greater than 100 µM and the TGI (UO-31 renal) was greater than 100 µM. For the same compound, the TGI (U251 CNS) was greater than 100 µM and the TGI (MALME-3M melanoma) was greater than 100 µM.
For CC(=O)Nc1ccc2[nH]c(-c3cccc(Cl)c3)cc(=O)c2c1, the TGI (ACHN renal) was greater than 100 µM, the TGI (OVCAR-5 ovarian) was greater than 100 µM and the TGI (M14 melanoma) was greater than 100 µM. The TGI (SK-MEL-28 melanoma) was greater than 100 µM, the TGI (NCI-H23 lung) was greater than 100 µM and the TGI (786-0 renal) was greater than 100 µM. It also gave a TGI (SF-539 CNS) of 30 µM, a TGI (RPMI-8226 leukemia) greater than 100 µM and a TGI (BT-549 breast) greater than 100 µM. It also gave a TGI (U251 CNS) of 23.8 µM and a TGI (MALME-3M melanoma) greater than 100 µM.
In the case of Cc1ncc2c(=O)c3c(oc2n1)c1ccccc1n3Cc1ccccc1, the TGI (ACHN renal) is reported as greater than 100 µM, the TGI (OVCAR-5 ovarian) is reported as greater than 100 µM and the TGI (SK-MEL-28 melanoma) is reported as greater than 100 µM. The TGI (NCI-H226 lung) was greater than 100 µM, the TGI (NCI-H23 lung) was greater than 100 µM and the TGI (786-0 renal) was greater than 100 µM. The TGI (SF-295 CNS) was greater than 100 µM, the TGI (SF-539 CNS) was greater than 100 µM and the TGI (RPMI-8226 leukemia) was greater than 100 µM. The TGI (BT-549 breast) was greater than 100 µM, the TGI (UO-31 renal) was greater than 100 µM and the TGI (U251 CNS) was greater than 100 µM. For the same compound, the TGI (MALME-3M melanoma) was greater than 100 µM.
Compound COc1ccc2cc(C(=O)O)ccc2c1OC has a TGI (ACHN renal) greater than 100 µM, a TGI (OVCAR-5 ovarian) greater than 100 µM and a TGI (M14 melanoma) greater than 100 µM. The TGI (NCI-H226 lung) was greater than 100 µM, the TGI (NCI-H23 lung) was greater than 100 µM and the TGI (786-0 renal) was greater than 100 µM. The TGI (SF-295 CNS) was greater than 100 µM, the TGI (SF-539 CNS) was greater than 100 µM and the TGI (BT-549 breast) was greater than 100 µM. For the same compound, the TGI (UO-31 renal) was greater than 100 µM, the TGI (U251 CNS) was greater than 100 µM and the TGI (MALME-3M melanoma) was greater than 100 µM.
With CCN(CC)c1ccc2cc(C(=O)Nc3ccccc3)c(=N)oc2c1 the TGI (ACHN renal) was greater than 100 µM, the TGI (OVCAR-5 ovarian) was greater than 100 µM and the TGI (M14 melanoma) was greater than 100 µM. The TGI (SK-MEL-28 melanoma) was greater than 100 µM, the TGI (NCI-H226 lung) was greater than 100 µM and the TGI (786-0 renal) was greater than 100 µM. For the same compound, the TGI (SF-295 CNS) was greater than 100 µM, the TGI (SF-539 CNS) was greater than 100 µM and the TGI (RPMI-8226 leukemia) was greater than 100 µM. The TGI (BT-549 breast) was greater than 100 µM, the TGI (UO-31 renal) was greater than 100 µM and the TGI (U251 CNS) was greater than 100 µM. For the same compound, the TGI (MALME-3M melanoma) was greater than 100 µM.
C=C[C@@H]1C[C@]2(C(=O)OC)Cc3nc4ccccc4nc3CC(C(=O)OC)=C2O1 showed a TGI (ACHN renal) greater than 100 µM, a TGI (OVCAR-5 ovarian) greater than 100 µM and a TGI (M14 melanoma) greater than 100 µM. For the same compound, the TGI (SK-MEL-28 melanoma) was greater than 100 µM, the TGI (NCI-H23 lung) was greater than 100 µM and the TGI (786-0 renal) was greater than 100 µM. The TGI (SF-295 CNS) was greater than 100 µM, the TGI (SF-539 CNS) was greater than 100 µM and the TGI (RPMI-8226 leukemia) was greater than 100 µM. The TGI (BT-549 breast) was greater than 100 µM, the TGI (U251 CNS) was greater than 100 µM and the TGI (MALME-3M melanoma) was greater than 100 µM.
CC(=O)CSc1c(-c2ccccc2)c(=O)n(-c2ccccc2)c(=S)n1-c1ccccc1 showed a TGI (ACHN renal) greater than 100 µM, a TGI (OVCAR-5 ovarian) greater than 100 µM and a TGI (M14 melanoma) greater than 100 µM. It also gave a TGI (SK-MEL-28 melanoma) greater than 100 µM, a TGI (NCI-H226 lung) greater than 100 µM and a TGI (NCI-H23 lung) greater than 100 µM. It also gave a TGI (786-0 renal) greater than 100 µM, a TGI (SF-295 CNS) greater than 100 µM and a TGI (RPMI-8226 leukemia) greater than 100 µM. The TGI (BT-549 breast) was greater than 100 µM, the TGI (UO-31 renal) was greater than 100 µM and the TGI (U251 CNS) was greater than 100 µM. It also gave a TGI (MALME-3M melanoma) greater than 100 µM.
With CN(N)c1cc(=O)[nH]c(=O)[nH]1 the TGI (ACHN renal) was greater than 100 µM, the TGI (SK-MEL-28 melanoma) was greater than 100 µM and the TGI (NCI-H226 lung) was greater than 100 µM. It also gave a TGI (NCI-H23 lung) greater than 100 µM, a TGI (786-0 renal) greater than 100 µM and a TGI (SF-295 CNS) greater than 100 µM. It also gave a TGI (SF-539 CNS) greater than 100 µM, a TGI (RPMI-8226 leukemia) greater than 100 µM and a TGI (BT-549 breast) of 50.6 µM. For the same compound, the TGI (MALME-3M melanoma) was greater than 100 µM.
For COc1cc(S(=O)(=O)Nc2ccc(-c3csc(N)n3)cc2)ccc1Cl, the TGI (ACHN renal) was 32.8 µM, the TGI (OVCAR-5 ovarian) was 40.4 µM and the TGI (M14 melanoma) was 35 µM. The TGI (SK-MEL-28 melanoma) was 48.5 µM, the TGI (NCI-H226 lung) was 77.5 µM and the TGI (NCI-H23 lung) was 40.1 µM. The TGI (786-0 renal) was 30 µM, the TGI (SF-539 CNS) was greater than 100 µM and the TGI (RPMI-8226 leukemia) was 65.1 µM. It also gave a TGI (BT-549 breast) of 43.1 µM, a TGI (UO-31 renal) of 37.2 µM and a TGI (MALME-3M melanoma) of 31.4 µM.
O=C(O)c1cc(/C=C/c2cc(O)ccc2O)ccc1O showed a TGI (ACHN renal) greater than 10 µM, a TGI (OVCAR-5 ovarian) greater than 10 µM and a TGI (M14 melanoma) greater than 10 µM. The TGI (NCI-H226 lung) was greater than 10 µM, the TGI (NCI-H23 lung) was greater than 10 µM and the TGI (786-0 renal) was greater than 10 µM. The TGI (SF-295 CNS) was greater than 10 µM, the TGI (SF-539 CNS) was greater than 10 µM and the TGI (BT-549 breast) was greater than 10 µM. The TGI (UO-31 renal) was greater than 10 µM, the TGI (U251 CNS) was greater than 10 µM and the TGI (MALME-3M melanoma) was greater than 10 µM.
Work on COc1cc(OC)c2nc(C)c3c(c2c1)NCC3 yielded a TGI (ACHN renal) of 26.2 µM, a TGI (OVCAR-5 ovarian) of 25.6 µM and a TGI (M14 melanoma) of 24.1 µM. For the same compound, the TGI (SK-MEL-28 melanoma) was 28.5 µM, the TGI (NCI-H226 lung) was 19 µM and the TGI (NCI-H23 lung) was 19.9 µM. It also gave a TGI (786-0 renal) of 17.2 µM, a TGI (SF-295 CNS) of 28.9 µM and a TGI (SF-539 CNS) of 16.4 µM. The TGI (BT-549 breast) was 27.5 µM, the TGI (UO-31 renal) was 27.5 µM and the TGI (U251 CNS) was 33.4 µM. The TGI (MALME-3M melanoma) was 24 µM.
Work on c1ccc(CNCCCCNCCCNCc2ccccc2)cc1 yielded a TGI (ACHN renal) of 29.3 µM, a TGI (OVCAR-5 ovarian) greater than 100 µM and a TGI (M14 melanoma) of 86.5 µM. The TGI (SK-MEL-28 melanoma) was 31.2 µM, the TGI (NCI-H226 lung) was 41.4 µM and the TGI (NCI-H23 lung) was 47.4 µM. For the same compound, the TGI (786-0 renal) was 31.4 µM, the TGI (SF-295 CNS) was greater than 100 µM and the TGI (RPMI-8226 leukemia) was greater than 100 µM. The TGI (BT-549 breast) was 33.6 µM, the TGI (UO-31 renal) was 52.4 µM and the TGI (U251 CNS) was 35.7 µM. The TGI (MALME-3M melanoma) was 30.2 µM.
